ChEMBL document CHEMBL1156319, “Synthesis, crystal and antibacterial studies of diversely functionalized tetrahydropyridin-4-ol” (2010)
≈ marks a conversion by molar mass, not a printed value.

Experiments:
Type in all cases: functional
Enterococcus faecalis = test: Antibacterial activity against Enterococcus faecalis LCB0005 by two fold serial dilution method
Escherichia coli [1] = test: Antibacterial activity against Escherichia coli LCB0012 by two fold serial dilution method
Klebsiella pneumoniae = test: Antibacterial activity against Klebsiella pneumoniae LCB0014 by two fold serial dilution method
[2] = system: Staphylococcus epidermidis; test: Antibacterial activity against Staphylococcus epidermidis LCB0003 by two fold serial dilution method
Enterococcus faecium = test: Antibacterial activity against Enterococcus faecium LCB0009 by two fold serial dilution method
Escherichia coli [3] = test: Antibacterial activity against Escherichia coli LCB0010 by two fold serial dilution method
Staphylococcus aureus = test: Antibacterial activity against Staphylococcus aureus LCB0001 by two fold serial dilution method
Escherichia coli [4] = test: Antibacterial activity against Escherichia coli LCB0011 by two fold serial dilution method
Haemophilus influenzae = test: Antibacterial activity against Haemophilus influenzae LCB0015 by two fold serial dilution method
Pseudomonas aeruginosa = test: Antibacterial activity against Pseudomonas aeruginosa LCB0013 by two fold serial dilution method
Moraxella catarrhalis = test: Antibacterial activity against Moraxella catarrhalis LCB0016 by two fold serial dilution method

Compound | MIC90 (Enterococcus faecalis) [µg/mL] | MIC90 (Escherichia coli [1]) [µg/mL] | MIC90 (Klebsiella pneumoniae) [µg/mL] | MIC90 [2] [µg/mL] | MIC90 (Enterococcus faecium) [µg/mL] | MIC90 (Escherichia coli [3]) [µg/mL] | MIC90 (Staphylococcus aureus) [µg/mL] | MIC90 (Escherichia coli [4]) [µg/mL] | MIC90 (Haemophilus influenzae) [µg/mL] | MIC90 (Pseudomonas aeruginosa) [µg/mL] | MIC90 (Moraxella catarrhalis) [µg/mL]
CCOC(=O)C1=C(O)CC(c2ccccc2)N(C(=O)c2ccccc2)C1c1ccccc1 (stereo not given) | > 128 | 64 (≈ 150 µM) | > 128 | > 128 | > 128 | > 128 | > 128 | > 128 | > 128 | > 128 | > 128
CCOC(=O)C1=C(O)CC(c2ccccc2)N(C(=O)CSc2nc3ccccc3o2)C1c1ccccc1 (stereo not given) | > 128 | > 128 | > 128 | > 128 | > 128 | > 128 | > 128 | > 128 | > 128 | > 128 | > 128
CCOC(=O)C1=C(O)CC(c2ccccc2)N(C(=O)C(C)n2nnc(-c3ccccc3)n2)C1c1ccccc1 (stereo not given) | > 128 | > 128 | > 128 | > 128 | > 128 | > 128 | > 128 | > 128 | > 128 | > 128 | > 128
CCOC(=O)C1=C(O)CC(c2ccccc2)N(C(=O)C(C)Sc2ccc3ccccc3c2)C1c1ccccc1 (stereo not given) | > 128 | > 128 | > 128 | > 128 | > 128 | > 128 | > 128 | > 128 | > 128 | > 128 | > 128
CCOC(=O)C1=C(O)CC(c2ccccc2)N(C(=O)C(C)n2cnc3ccccc32)C1c1ccccc1 (stereo not given) | > 128 | > 128 | > 128 | > 128 | > 128 | > 128 |  | > 128 | > 128 | > 128 | > 128
CCOC(=O)C1=C(O)CC(c2ccccc2)N(C(=O)C(C)n2ccc3ccccc32)C1c1ccccc1 (stereo not given) | > 128 | 128 (≈ 259 µM) | > 128 | > 128 | > 128 | > 128 | > 128 | > 128 | > 128 | > 128 | > 128
CCOC(=O)C1=C(O)CC(c2ccccc2)N(C(=O)C(C)Sc2nc3ccccc3o2)C1c1ccccc1 (stereo not given) | > 128 | > 128 | > 128 | > 128 | > 128 | > 128 | > 128 | > 128 | > 128 | > 128 | > 128
CCOC(=O)C1=C(O)CC(c2ccccc2)N(C(=O)Cn2ccnc2)C1c1ccccc1 (stereo not given) | > 128 | 64 (≈ 148 µM) | > 128 | > 128 | > 128 | > 128 | 128 (≈ 297 µM) | > 128 | > 128 | > 128 | 64 (≈ 148 µM)
CCOC(=O)C1=C(O)CC(c2ccccc2)N(C(=O)Cn2nnc3ccccc32)C1c1ccccc1 (stereo not given) | > 128 | > 128 | > 128 | > 128 | 64 (≈ 133 µM) | > 128 | > 128 | > 128 | > 128 | > 128 | > 128
CCOC(=O)C1=C(O)CC(c2ccccc2)N(C(=O)CN2CCCCC2)C1c1ccccc1 (stereo not given) | > 128 | 64 (≈ 143 µM) | > 128 | > 128 | 128 (≈ 285 µM) | > 128 | > 128 | > 128 | > 128 | > 128 | 32 (≈ 71.3 µM)
CCOC(=O)C1=C(O)CC(c2ccccc2)N(C(=O)C(C)n2nnc3ccccc32)C1c1ccccc1 (stereo not given) | > 128 | > 128 | > 128 | > 128 | > 128 | > 128 | > 128 | > 128 | > 128 | > 128 | > 128
CCOC(=O)C1=C(O)CC(c2ccccc2)N(C(=O)C(C)n2ccnc2)C1c1ccccc1 (stereo not given) | > 128 | 64 (≈ 144 µM) | 128 (≈ 287 µM) | > 128 | > 128 | > 128 | 32 (≈ 71.8 µM) | > 128 | > 128 | 128 (≈ 287 µM) | 64 (≈ 144 µM)
CCOC(=O)C1=C(O)CC(c2ccccc2)N(C(=O)C(C)N2CCCCC2)C1c1ccccc1 (stereo not given) | > 128 | > 128 | > 128 | > 128 | 128 (≈ 277 µM) | > 128 | > 128 | > 128 | > 128 | > 128 | 64 (≈ 138 µM)
CCOC(=O)C1=C(O)CC(c2ccccc2)N(C(=O)COc2ccc3ccccc3c2)C1c1ccccc1 (stereo not given) | > 128 | > 128 | > 128 | > 128 | 128 (≈ 252 µM) | > 128 | > 128 | > 128 | > 128 | > 128 | > 128
CCOC(=O)C1=C(O)CC(c2ccccc2)N(C(=O)Cn2ccc3ccccc32)C1c1ccccc1 (stereo not given) | > 128 | > 128 | > 128 | > 128 | > 128 | > 128 | > 128 | > 128 | > 128 | > 128 | 32 (≈ 66.6 µM)
CCOC(=O)C1=C(O)CC(c2ccccc2)N(C(=O)CN2CCSCC2)C1c1ccccc1 (stereo not given) | > 128 | > 128 | > 128 | > 128 | > 128 | > 128 | > 128 | > 128 | > 128 | > 128 | 64 (≈ 137 µM)
CCOC(=O)C1=C(O)CC(c2ccccc2)N(C(=O)Cn2nnc(-c3ccccc3)n2)C1c1ccccc1 (stereo not given) | > 128 | > 128 | > 128 | > 128 | 128 (≈ 251 µM) | > 128 | > 128 | > 128 | > 128 | > 128 | > 128
CCOC(=O)C1=C(O)CC(c2ccccc2)N(C(=O)CN2CCN(C)CC2)C1c1ccccc1 (stereo not given) | > 128 | > 128 | > 128 | > 128 | 128 (≈ 276 µM) | > 128 | > 128 | > 128 | > 128 | > 128 | 32 (≈ 69 µM)
CCOC(=O)C1=C(O)CC(c2ccccc2)N(C(=O)CN2CCC(=O)CC2)C1c1ccccc1 (stereo not given) | > 128 | > 128 | > 128 | > 128 | > 128 | > 128 | > 128 | > 128 | > 128 | > 128 | 64 (≈ 138 µM)
CCOC(=O)C1=C(O)CC(c2ccccc2)N(C(=O)C(C)N2CCSCC2)C1c1ccccc1 (stereo not given) | > 128 | > 128 | > 128 | > 128 | > 128 | > 128 | > 128 | > 128 | > 128 | > 128 | > 128
CCOC(=O)C1=C(O)CC(c2ccccc2)N(C(=O)C(C)Oc2ccc3ccccc3c2)C1c1ccccc1 (stereo not given) | > 128 | > 128 | > 128 | > 128 | > 128 | > 128 | > 128 | > 128 | > 128 | > 128 | > 128
CCOC(=O)C1=C(O)CC(c2ccccc2)N(C(=O)C(C)N2CCN(C)CC2)C1c1ccccc1 (stereo not given) | > 128 | > 128 | > 128 | > 128 | > 128 | > 128 | > 128 | > 128 | > 128 | > 128 | 64 (≈ 134 µM)
CCOC(=O)C1=C(O)CC(c2ccccc2)N(C(=O)C(C)N2CCC(=O)CC2)C1c1ccccc1 (stereo not given) | > 128 | 128 (≈ 269 µM) | > 128 | > 128 | > 128 | > 128 | > 128 | > 128 | > 128 | > 128 | > 128
CCOC(=O)C1=C(O)CC(c2ccccc2)N(C(=O)CN2CCOCC2)C1c1ccccc1 (stereo not given) | > 128 | > 128 | > 128 | > 128 | > 128 | > 128 | > 128 | > 128 | > 128 | > 128 | 64 (≈ 142 µM)
CCOC(=O)C1=C(O)CC(c2ccccc2)N(C(=O)C(C)N2CCOCC2)C1c1ccccc1 (stereo not given) | > 128 | > 128 | > 128 | > 128 | 128 (≈ 276 µM) | > 128 | > 128 | > 128 | > 128 | > 128 | > 128
CCOC(=O)C1=C(O)CC(c2ccccc2)N(C(=O)CSc2ccc3ccccc3c2)C1c1ccccc1 (stereo not given) | > 128 | > 128 | > 128 | > 128 | 128 (≈ 244 µM) | > 128 | > 128 | > 128 | > 128 | > 128 | > 128
